According to US20110318271A1, “Arginase Inhibitors for the Treatment of Depression” (UNIVERSITY OF TARTU, priority 2008, published 2011):

Tested on: Male C57BL/6/Bkl mice
Test: Forced swimming test in mice
Format: in vivo
Protocol: Male C57BL/6/Bkl mice (Scanbur BK AB, Sweden) weighing 20-25 g were used. Mice were kept 10 per cage (21×37×15 cm) in an animal house at 20° C. in a 12 h light/dark cycle (light on at 7.00 a.m.). Tap water and food pellets were available ad libitum. The animals were kept for at least two weeks in the animal colony before entering experiments. The measurement of locomotor activity, and forced swimming test were carried out consecutively 45 and 55 min after treatment with study compounds, according to Volke V, Wegener G, Bourin […]. […] Behavioural Brain Research 2003; 140: 141-147. In a separate experiment arginase product L-ornithine or saline was injected 15 min prior to L-norvaline. The Forced Swimming test was performed as described by Porsolt et al Porsolt R D, Bertin A, Jalfre M. Behavioral despair in mice: a primary screening test for antidepressants. Arch Int Pharmacodyn Ther 1977; 229: 327-336. A glass cylinder with a diameter of 12 cm was filled with 8 cm water at 25° C. An animal was put into the water and its behaviour was videotaped during 6 min. An observer blind to treatment protocol counted the immobility time during the last 4 min of the 6 min test.

[1] = Example 2, separate experiment (FIG. 2), 500 mg/kg each, L-ornithine or saline injected 15 min prior to L-norvaline, saline 199 sec

Compound: CCC[C@H](N)C(=O)O [L-norvaline]
- immobility time (20 mg/kg i.p., 55 min after treatment, last 4 min of 6 min test, control 220 sec (FIG. 1)): 146 s
- immobility time (100 mg/kg i.p., 55 min after treatment, last 4 min of 6 min test, control 220 sec (FIG. 1)): 107 s
- immobility time (500 mg/kg i.p., 55 min after treatment, last 4 min of 6 min test, control 220 sec (FIG. 1)): 96 s
- immobility time [1]: 127 s

Compound: NCCC[C@H](N)C(=O)O [L-ornithine]
- immobility time [1]: 214 s

Compound: difluoromethylornithine [DFMO]
- immobility time (400 mg/kg i.p., separate experiment, control 219 sec): 191 s
- effect on immobility time (lower doses 10-100 mg/kg i.p.): ineffective
